According to patent publication US12006328B2, “Thieno[2,3-d]pyrimidin-4-one derivatives as NMDAR modulators and uses related thereto” (Emory University, priority 2014, dated 2024):

Legend:
Format in all cases: cell-based
[1] = biological target: GluN2B-containing NMDA receptors (Homo sapiens, UniProt Q13224); experiment: Two-electrode voltage-clamp recordings from Xenopus laevis oocytes, GluN2B; settings: for maximal potentiation Glu N2B / I10 μM/ICONTROL (mean ± SEM, %) Glu N2B: percent of response without compound; for I10 μM/ICONTROL (mean ± SEM, %) Glu N2B: 10 μM test compound with glutamate 100 μM and glycine 30 μM, Tables 1-5; for EC50: read-out: EC50 Glu N2B
Sequence of GluN2B-containing NMDA receptors (Q13224 27-1484, other chains not shown): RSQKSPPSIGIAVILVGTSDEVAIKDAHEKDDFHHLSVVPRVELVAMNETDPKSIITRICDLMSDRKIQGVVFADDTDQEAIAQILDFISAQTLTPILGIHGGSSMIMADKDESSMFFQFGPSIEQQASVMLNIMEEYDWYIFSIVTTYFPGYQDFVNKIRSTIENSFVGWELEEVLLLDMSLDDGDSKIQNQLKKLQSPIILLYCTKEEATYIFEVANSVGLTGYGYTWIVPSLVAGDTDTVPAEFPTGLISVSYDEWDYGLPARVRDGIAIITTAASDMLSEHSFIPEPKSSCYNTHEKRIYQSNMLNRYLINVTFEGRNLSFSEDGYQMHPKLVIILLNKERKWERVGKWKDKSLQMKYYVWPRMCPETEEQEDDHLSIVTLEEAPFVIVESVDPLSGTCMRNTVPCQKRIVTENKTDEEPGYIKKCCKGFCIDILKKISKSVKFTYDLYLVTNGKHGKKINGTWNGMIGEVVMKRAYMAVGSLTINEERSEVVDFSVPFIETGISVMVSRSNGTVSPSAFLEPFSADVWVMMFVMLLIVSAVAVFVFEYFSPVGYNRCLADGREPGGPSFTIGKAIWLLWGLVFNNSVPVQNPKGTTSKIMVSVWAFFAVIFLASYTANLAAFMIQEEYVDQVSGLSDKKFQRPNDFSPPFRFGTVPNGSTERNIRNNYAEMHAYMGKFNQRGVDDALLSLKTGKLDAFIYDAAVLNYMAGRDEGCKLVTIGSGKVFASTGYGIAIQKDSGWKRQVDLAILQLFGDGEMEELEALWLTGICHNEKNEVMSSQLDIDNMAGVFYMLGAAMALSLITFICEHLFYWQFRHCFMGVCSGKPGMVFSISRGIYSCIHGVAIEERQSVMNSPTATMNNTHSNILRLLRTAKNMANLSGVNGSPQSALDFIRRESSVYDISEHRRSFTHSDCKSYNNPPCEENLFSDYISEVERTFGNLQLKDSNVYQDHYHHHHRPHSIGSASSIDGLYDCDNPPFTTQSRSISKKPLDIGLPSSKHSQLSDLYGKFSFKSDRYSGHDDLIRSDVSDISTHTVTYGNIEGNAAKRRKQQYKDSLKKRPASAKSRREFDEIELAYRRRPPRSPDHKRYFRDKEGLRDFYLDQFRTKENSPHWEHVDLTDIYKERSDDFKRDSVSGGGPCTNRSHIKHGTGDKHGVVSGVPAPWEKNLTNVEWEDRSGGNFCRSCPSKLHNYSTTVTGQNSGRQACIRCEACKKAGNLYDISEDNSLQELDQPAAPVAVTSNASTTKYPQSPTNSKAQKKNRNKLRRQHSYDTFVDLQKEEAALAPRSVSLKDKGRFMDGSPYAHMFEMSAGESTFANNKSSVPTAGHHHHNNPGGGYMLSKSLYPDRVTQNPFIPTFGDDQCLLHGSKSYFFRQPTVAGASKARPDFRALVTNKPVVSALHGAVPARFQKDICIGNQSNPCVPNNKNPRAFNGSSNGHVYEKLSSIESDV
Description: (§1) Xenopus laevis oocytes were injected with cRNA encoding the NMDA receptor subunits. Two to seven days after injection, two-electrode voltage-clamp recordings were performed. Extracellular solutions were made from a solutions containing (in mM) 90 NaCl, 3 KCl, 10 HEPES, 0.5 BaCl2, 0.01 EDTA (pH 7.4 with NaOH). Voltage and current electrodes were filled with 0.3 M and 3.0 M KCl, respectively.
(§2) Potency was determined by adding increasing concentrations of test compound to saturating concentrations of glutamate (100 μM) and glycine (30 μM), and the response amplitude measured. The response in the presence of each concentration of test compound plus agonists was expressed as a percent of the response in the absence of test compound.

[2] = biological target: GluN2D-containing NMDA receptors (Homo sapiens, UniProt O15399); experiment: Two-electrode voltage-clamp recordings from Xenopus laevis oocytes, GluN2D; settings: for maximal potentiation Glu N2D / I10 μM/ICONTROL (mean ± SEM, %) Glu N2D: percent of response without compound; for I10 μM/ICONTROL (mean ± SEM, %) Glu N2D: 10 μM test compound with glutamate 100 μM and glycine 30 μM, Tables 1-5; for EC50: read-out: EC50 Glu N2D
Sequence of GluN2D-containing NMDA receptors (O15399 28-1336, other chains not shown): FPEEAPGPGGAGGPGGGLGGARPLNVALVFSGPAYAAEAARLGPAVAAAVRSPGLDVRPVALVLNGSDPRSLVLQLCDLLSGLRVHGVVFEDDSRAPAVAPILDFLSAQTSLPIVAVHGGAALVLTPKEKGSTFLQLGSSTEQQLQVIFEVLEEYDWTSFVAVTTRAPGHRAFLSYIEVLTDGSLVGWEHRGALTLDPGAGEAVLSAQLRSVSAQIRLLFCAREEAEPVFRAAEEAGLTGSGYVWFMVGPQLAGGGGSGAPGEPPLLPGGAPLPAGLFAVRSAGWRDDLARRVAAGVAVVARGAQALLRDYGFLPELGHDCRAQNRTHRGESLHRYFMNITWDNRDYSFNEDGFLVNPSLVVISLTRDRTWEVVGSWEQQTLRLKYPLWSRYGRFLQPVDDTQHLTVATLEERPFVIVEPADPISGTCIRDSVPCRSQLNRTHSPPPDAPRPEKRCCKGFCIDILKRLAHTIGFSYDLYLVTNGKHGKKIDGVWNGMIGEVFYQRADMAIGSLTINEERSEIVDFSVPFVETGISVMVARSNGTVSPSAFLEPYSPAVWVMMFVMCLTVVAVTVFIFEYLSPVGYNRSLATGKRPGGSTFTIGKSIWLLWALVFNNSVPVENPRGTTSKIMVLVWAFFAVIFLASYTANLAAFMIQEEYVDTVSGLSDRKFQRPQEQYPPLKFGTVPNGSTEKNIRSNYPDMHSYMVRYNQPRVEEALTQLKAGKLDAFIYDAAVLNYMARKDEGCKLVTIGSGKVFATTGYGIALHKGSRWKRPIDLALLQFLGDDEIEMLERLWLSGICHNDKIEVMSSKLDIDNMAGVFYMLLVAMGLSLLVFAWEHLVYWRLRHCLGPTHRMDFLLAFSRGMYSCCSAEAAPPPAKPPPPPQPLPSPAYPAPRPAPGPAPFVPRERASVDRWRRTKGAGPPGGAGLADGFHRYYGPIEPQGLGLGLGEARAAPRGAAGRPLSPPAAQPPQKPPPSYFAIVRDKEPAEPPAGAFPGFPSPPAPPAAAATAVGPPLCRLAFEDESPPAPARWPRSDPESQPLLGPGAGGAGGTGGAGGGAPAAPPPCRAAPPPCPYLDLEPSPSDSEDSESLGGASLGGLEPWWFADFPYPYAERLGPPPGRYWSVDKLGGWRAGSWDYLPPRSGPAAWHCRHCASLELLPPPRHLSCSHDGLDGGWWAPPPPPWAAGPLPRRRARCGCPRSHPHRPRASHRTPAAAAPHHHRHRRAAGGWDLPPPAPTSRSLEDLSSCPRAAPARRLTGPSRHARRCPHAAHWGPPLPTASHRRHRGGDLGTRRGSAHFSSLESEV
Description: as §1, §2

[3] = biological target: GluN2C-containing NMDA receptors (Homo sapiens, UniProt Q14957); experiment: Two-electrode voltage-clamp recordings from Xenopus laevis oocytes, GluN2C; settings: for maximal potentiation Glu N2C / I10 μM/ICONTROL (mean ± SEM, %) Glu N2C: percent of response without compound; for I10 μM/ICONTROL (mean ± SEM, %) Glu N2C: 10 μM test compound with glutamate 100 μM and glycine 30 μM, Tables 1-5; for EC50: read-out: EC50 Glu N2C
Sequence of GluN2C-containing NMDA receptors (Q14957 20-1233, other chains not shown): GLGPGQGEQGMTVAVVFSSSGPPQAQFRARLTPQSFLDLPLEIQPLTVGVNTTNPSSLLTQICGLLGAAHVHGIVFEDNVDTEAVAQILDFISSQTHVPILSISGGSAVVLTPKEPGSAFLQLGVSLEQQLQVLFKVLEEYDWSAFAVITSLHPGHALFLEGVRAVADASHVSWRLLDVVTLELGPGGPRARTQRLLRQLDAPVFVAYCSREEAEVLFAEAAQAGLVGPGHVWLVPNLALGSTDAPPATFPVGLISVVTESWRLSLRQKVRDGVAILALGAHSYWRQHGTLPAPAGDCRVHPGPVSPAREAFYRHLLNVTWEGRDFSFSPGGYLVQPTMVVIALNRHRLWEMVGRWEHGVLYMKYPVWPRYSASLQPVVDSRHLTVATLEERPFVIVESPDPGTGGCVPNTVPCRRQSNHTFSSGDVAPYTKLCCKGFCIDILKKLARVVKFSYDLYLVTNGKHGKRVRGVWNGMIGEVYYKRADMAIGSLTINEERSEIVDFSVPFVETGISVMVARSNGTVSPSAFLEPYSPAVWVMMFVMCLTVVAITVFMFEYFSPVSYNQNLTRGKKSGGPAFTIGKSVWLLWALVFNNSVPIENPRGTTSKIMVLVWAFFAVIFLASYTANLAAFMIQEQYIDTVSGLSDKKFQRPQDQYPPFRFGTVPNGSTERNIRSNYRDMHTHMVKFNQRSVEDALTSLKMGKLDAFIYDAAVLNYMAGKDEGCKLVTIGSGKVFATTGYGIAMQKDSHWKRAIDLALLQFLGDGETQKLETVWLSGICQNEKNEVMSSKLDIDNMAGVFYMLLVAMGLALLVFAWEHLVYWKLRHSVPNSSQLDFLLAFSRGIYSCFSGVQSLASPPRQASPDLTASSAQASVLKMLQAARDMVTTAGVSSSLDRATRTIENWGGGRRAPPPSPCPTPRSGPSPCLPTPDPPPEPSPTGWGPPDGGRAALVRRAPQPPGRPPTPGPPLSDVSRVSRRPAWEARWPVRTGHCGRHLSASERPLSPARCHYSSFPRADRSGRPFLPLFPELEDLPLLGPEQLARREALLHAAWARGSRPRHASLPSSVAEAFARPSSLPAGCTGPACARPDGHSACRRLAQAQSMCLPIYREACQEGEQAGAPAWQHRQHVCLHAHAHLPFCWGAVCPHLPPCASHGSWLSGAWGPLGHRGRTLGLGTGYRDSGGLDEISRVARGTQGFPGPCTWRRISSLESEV
Description: as §1, §2

[4] = Table 2, in brackets below IC50
[5] = Table 1, glutamate 100 μM, glycine 30 μM, Hill fit
[6] = Table 1, in brackets after EC50

| Compound | IC50 ([1]; Table 2, glutamate 100 μM, glycine 30 μM, Hill fit, read-out: IC50 Glu N2B) [µM] | maximal potentiation Glu N2B [1, 4] | IC50 ([2]; Table 2, glutamate 100 μM, glycine 30 μM, Hill fit, read-out: IC50 Glu N2D) [µM] | maximal potentiation Glu N2D [2, 4] | IC50 ([3]; Table 2, glutamate 100 μM, glycine 30 μM, Hill fit, read-out: IC50 Glu N2C) [µM] | maximal potentiation Glu N2C [3, 4] | I10 μM/ICONTROL (mean ± SEM, %) Glu N2B [1] [%] | EC50 [1, 5] [µM] | maximal potentiation Glu N2B [1, 6] [%] | I10 μM/ICONTROL (mean ± SEM, %) Glu N2D [2] [%] | EC50 [2, 5] [µM] | maximal potentiation Glu N2D [2, 6] [%] | I10 μM/ICONTROL (mean ± SEM, %) Glu N2C [3] [%] | EC50 [3, 5] [µM] | maximal potentiation Glu N2C [3, 6] [%] |
| --- | --- | --- | --- | --- | --- | --- | --- | --- | --- | --- | --- | --- | --- | --- | --- |
| Cc1sc2ncn(CC(=O)N3CCCC3)c(=O)c2c1-c1ccc(Cl)cc1 [1 / 4-Cl—Ph / Me / —Npyrrolidine] | 11 | (223) % | 23 | (381) % | 15 | (347) % | – | – | – | – | – | – | – | – | – |
| Cc1sc2ncn(CC(=O)N3CCCC3)c(=O)c2c1-c1cccc(I)c1 [3-I—Ph / Me] | – | – | – | – | – | – | 246 ± 14.9 | 3.7 | 249 | 364 ± 31.6 | 15 | 1068 | 401 ± 36.4 | 7.6 | 622 |
| Cc1sc2ncn(CC(=O)N3CCCC3)c(=O)c2c1-c1ccc(N)cc1 [4-NH2—Ph / Me] | – | – | – | – | – | – | 104 ± 1.7 | – | – | 103 ± 2.2 | – | – | 116 ± 4.5 | – | – |
| Cc1sc2ncn(Cc3cnnn3CCC3OCCCO3)c(=O)c2c1-c1cccc(Cl)c1 | – | – | – | – | – | – | 89 ± 2.5 | – | – | 91 ± 1.3 | – | – | 92 ± 0.8 | – | – |
| Cc1sc2ncn(CC(=O)N3CCCC3)c(=O)c2c1-c1ccccc1 [Ph / Me] | – | – | – | – | – | – | 115 ± 5.4 | 15 | 153 | 148 ± 9.1 | 12 | 262 | 120 ± 3.7 | 14 | 168 |
| Cc1sc2ncn(CC(=O)N3CCCC3)c(=O)c2c1-c1ccc(F)cc1 [4-F—Ph / Me] | – | – | – | – | – | – | – | 54 | 213 | – | 124 | 428 | – | 81 | 448 |
| Cc1sc2ncn(CC(=O)NCC(=O)O)c(=O)c2c1-c1ccc(Cl)cc1 [1 / 4-Cl—Ph / Me / —NHCH2COOH] | – | – | – | – | – | – | 87 ± 1.3 | – | – | 93 ± 1.8 | – | – | 105 ± 3.7 | – | – |
| Cc1sc2ncn(CC(=O)N3CCCC3)c(=O)c2c1-c1cc(F)cc(F)c1 [3,5-F—Ph / Me] | – | – | – | – | – | – | 107 ± 2.7 | 96 | 229 | 116 ± 4.4 | 204 | 748 | 114 ± 0.9 | 132 | 458 |
| Cc1sc2ncn(CC(=O)N3CCCC3)c(=O)c2c1-c1cccc(-n2cncn2)c1 [3-1,2,4 triazolyl-Ph / Me] | – | – | – | – | – | – | 110 ± 2.6 | 293 | 402 | 108 ± 6.2 | 108 | 239 | 113 ± 5.8 | 44 | 308 |
| Cc1sc2ncn(CC(=O)N3CCCC3)c(=O)c2c1-c1ccc(Br)cc1 [4-Br—Ph / Me] | – | – | – | – | – | – | – | 11.3 | 163 | – | 79 | 400 | – | 60 | 449 |
| Cc1sc2ncn(CC(=O)O)c(=O)c2c1-c1cccc(Cl)c1 [1 / 3-Cl—Ph / Me / OH] | – | – | – | – | – | – | 93 ± 1.2 | – | – | 89 ± 1.4 | – | – | 93 ± 1.4 | – | – |
